Experimental data as given in US20240251790A1 (priority 2021, published 2024).
Values joined by “and” are separate entries in the source; they are usually repeats but may differ in a detail not shown here. Identical values can stand only once. Like-named read-outs stand apart in the source and are kept apart here.

Columns and labels:
[1] = system: total microbial count (APC); format: cell-based
barley = test: Germination of treated barley kernels (percentage of living kernels); format: in vivo; settings: 500 ppm PAA
Procedure: The grains treated with PAA as described in Example 4 were further tested for germination. After the treatment, the PAA solution was decanted and kernels were immediately transferred into Petri dishes and placed between two wet paper towels for germination tests. The treated kernels were not washed with water. The germination continued in a water bath at room temperature for 2 days. Germination was evaluated by the percentage of living kernels in a sample of barley.

[2] = system: Fusarium graminearum 46779; format: cell-based
[3] = system: all microbial populations tested (APC, ECC, YM); test: Micro tests on barley grains, all microbial populations tested (APC, ECC, YM); format: cell-based
Procedure: The treatment was performed at 20° C. as follows: 100 ml of PAA solution at 500 ppm (unadjusted or adjusted to pH=9.0) were applied to 10.0 g of wet barley grains. Solutions with the grains were then shaken for 30 seconds and then the acid solution was neutralized by addition of 0.5 g sodium thiosulfate. The solutions were then used to evaluate effect of PAA treatment on total microbial count (APC), coliforms (ECC), and yeast and mold (YM). Control samples were treated with DI water.
Each sample was diluted serially into Butterfield's phosphate buffer, and the dilutions were plated on Petrifilm™ (3M, Minneapolis, MN) plates specific for different types of microorganisms. The plates were incubated for 48 hours at 35° C. for APC, and for 5 days at 25° C. for YM. For ECC, the incubation was done at 35° C. for 24 hours, then coliforms were counted, and incubation continued for an additional 24 hours at 35° C. Grown colonies on plates were counted and expressed in CFU/10 g barley grains for each treatment. The tests were done in duplicates.

coliforms (ECC) = format: cell-based; settings: 500 ppm PAA; for ECC Log10 / ECC Log10 Reduction: germinated barley treated before kilning
[4] = germinated barley treated before kilning, 500 ppm PAA, pH = 3, 30 s, testing after germination
[5] = germinated barley treated before kilning, 500 ppm PAA, pH = 3, 30 s, testing after kilning
[6] = germinated barley treated before kilning, 500 ppm PAA, pH = 9, 30 s, testing after germination
[7] = germinated barley treated before kilning, 500 ppm PAA, pH = 9, 30 s, testing after kilning
[8] = germinated barley, 500 ppm PAA, pH = 3.1, 30 seconds
[9] = germinated barley, 500 ppm PAA, pH = 9.0, 30 seconds
[10] = steeped barley, 500 ppm PAA, pH = 3.1 (unadjusted), 30 seconds, 20° C.
[11] = steeped barley, 500 ppm PAA, pH = 6.5, 5 s
[12] = steeped barley, 500 ppm PAA, pH = 6.5, 30 s
[13] = steeped barley, 500 ppm PAA, pH = 9, 5 s
[14] = steeped barley, 500 ppm PAA, pH = 9, 30 s
[15] = steeped barley, 500 ppm PAA, pH = 9.0, 30 seconds, 20° C.
[16] = steeped barley, 500 ppm PAA, pH = 9, 10 min
[17] = steeped barley, 500 ppm PAA, pH = 10.0, 5 s
[18] = steeped barley, 500 ppm PAA, pH = 10.0, 30 s
[19] = steeped barley, 500 ppm PAA, unadjusted (pH=3.1), 5 s
[20] = steeped barley, 500 ppm PAA, unadjusted (pH=3.1), 30 s
[21] = test on day 2, treated once, day 2 (after steeping), 500 ppm PAA, 2:1, 10 minutes, 20° C.
[22] = test on day 4, treated once, day 2, 500 ppm PAA, 10 minutes
[23] = test on day 4, treated twice, days 2 and 4, 500 ppm PAA, 10 min each
[24] = pH = 3, 30 s, testing after germination
[25] = pH = 3, 30 s, testing after kilning, * = complete kill
[26] = pH = 9, 30 s, testing after germination
[27] = pH = 9, 30 s, testing after kilning, * = complete kill

In the case of `CC(=O)OO` [PAA, peracetic acid], the “APC Log10” value [1, 4] is reported as 7.22 Log10, the “APC Log10 Reduction” value [1, 4] is reported as 1.47 Log10 and the “APC Log10” value [1, 5] is reported as 3.78 Log10. For the same molecule, the “APC Log10 Reduction” value [1, 5] was 2.59 Log10, the “APC Log10” value [1, 6] was 7.86 Log10 and the “APC Log10 Reduction” value [1, 6] was 0.83 Log10. For the same molecule, the “APC Log10” value [1, 7] was 5.14 Log10, the “APC Log10 Reduction” value [1, 7] was 1.23 Log10 and the “APC Log10 (CFU/10 g barley grains)” value [1, 8] was 7.23 Log10. The “APC Log10 Reduction” value [1, 8] was 1.98 Log10, the “APC Log10 (CFU/10 g barley grains)” value [1, 9] was 8.01 Log10 and the “APC Log10 Reduction” value [1, 9] was 1.20 Log10. For the same molecule, the “APC Log10 (CFU/10 g barley grains)” value [1, 10] was 6.99 Log10, the “APC Log10 Reduction” value [1, 10] was 2.16 Log10 and the “APC Log10” value [1, 11] was 7.34 Log10. For the same molecule, the “APC Log10 Reduction” value [1, 11] was 1.73 Log10, the “APC Log10” value [1, 12] was 6.51 Log10 and the “APC Log10 Reduction” value [1, 12] was 2.56 Log10. The “APC Log10” value [1, 13] was 7.97 Log10, the “APC Log10 Reduction” value [1, 13] was 0.51 Log10 and the “APC Log10” value [1, 14] was 6.72 Log10. For the same molecule, the “APC Log10 Reduction” value [1, 14] was 1.75 Log10, the “APC Log10 (CFU/10 g barley grains)” value [1, 15] was 7.34 Log10 and the “APC Log10 Reduction” value [1, 15] was 1.81 Log10. The “APC Log10” value [1, 16] was 6.25 Log10, the “APC Log10 Reduction” value [1, 16] was 2.23 Log10 and the “APC Log10” value [1, 17] was 8.28 Log10. For the same molecule, the “APC Log10 Reduction” value [1, 17] was 0.79 Log10, the “APC Log10” value [1, 18] was 7.35 Log10 and the “APC Log10 Reduction” value [1, 18] was 1.72 Log10. For the same molecule, the “APC Log10” value [1, 19] was 8.19 Log10, the “APC Log10 Reduction” value [1, 19] was 0.29 Log10 and the “APC Log10” value [1, 20] was 6.54 Log10. The “APC Log10 Reduction” value [1, 20] was 1.93 Log10, the “APC Log10” value [1, 21] was 3.84 Log10 and the “APC Log10 Reduction” value [1, 21] was 4.30 Log10. For the same molecule, the “APC Log10” value [1, 22] was 6.72 Log10, the “APC Log10 Reduction” value [1, 22] was 2.5 Log10 and 2.52 Log10 and the “APC Log10” value [1, 23] was 5.78 Log10. The “APC Log10 Reduction” value [1, 23] was 3.46 Log10, the Germination (barley; pH 3.1, 30 s, germination 2 days) was 100% and the Germination (barley; pH 3.1, 5 min, germination 2 days) was 100%. The Germination (barley; pH 3.1, 10 min, germination 2 days) was 94%, the Germination (barley; pH 3.1, 30 min, germination 2 days) was 73% and the Germination (barley; pH 9.0, 30 s, germination 2 days) was 100%. For the same molecule, the Germination (barley; pH 9.0, 5 min, germination 2 days) was 100%, the Germination (barley; pH 9.0, 10 min, germination 2 days) was 100% and the Germination (barley; pH 9.0, 30 min, germination 2 days) was 99%. For the same molecule, the Germination (barley; pH 9.0, longer treatment times (10 min and 30 min)) was roughly 100%, the “effect on germination” value (barley; short treatment times (0.5-5 min)) was “practically did not affect the germination” and the “effect on germination” value (barley; unadjusted (acidic) solution, longer treatment times (10 min and especially 30 min)) was “suppressed germination”. The “kill of Fusarium” value [2] was “complete kill”, the “reduction of all microorganisms” value ([3]; germinated barley, unadjusted PAA 500 ppm, 30 seconds (Example 2)) was 1-2 Log10 and the reduction ([3]; steeped barley, 500 ppm PAA at higher pH (pH=9.0), given sufficient time (Example 4)) was 2-3 Log10. For the same molecule, the “reduction of all microorganisms” value ([3]; steeped barley, 500 ppm PAA, 30 s (Example 4)) was 2.0-4.5 Log10, the “reduction in all microbial populations tested” value ([3]; steeped barley, 500 ppm PAA, 30 seconds, pH 3.1 and 9.0 (Example 1)) was 1.5-2.1 Log10 and the “ECC Log10” value (coliforms (ECC); [24]) was 6.59 Log10. For the same molecule, the “ECC Log10 Reduction” value (coliforms (ECC); [24]) was 1.67 Log10, the “ECC Log10” value (coliforms (ECC); [25]) was 0.00* Log10 and the “ECC Log10 Reduction” value (coliforms (ECC); [25]) was 3.25* Log10. The “ECC Log10” value (coliforms (ECC); [26]) was 6.68 Log10, the “ECC Log10 Reduction” value (coliforms (ECC); [26]) was 1.58 Log10 and the “ECC Log10” value (coliforms (ECC); [27]) was 0.00* Log10. For the same molecule, the “ECC Log10 Reduction” value (coliforms (ECC); [27]) was 3.25* Log10 and the “ECC Log10 (CFU/10 g barley grains)” value (coliforms (ECC); germinated barley, pH = 3.1, 30 seconds) was 6.83 Log10.
